Like-named read-outs stand apart in the source and are kept apart here.
Assays:
BACE1 = BACE1 (Homo sapiens, UniProt P56817); assay: In vitro enzymatic BACE FRET assay; type: biochemical
Summary of the method: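 Fluorescence (excitation 488 nm, […]) from cleavage of quenched peptide substrate (50 nM), reaction run 1 h after 1 h enzyme–inhibitor pre-incubation, then neutralised with Tris. Conditions: 0.2 nM enzyme, pH 4.2 acetate 0.05 M, 10% DMSO final, 100 uM genapol.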

[1] = tested on: Aβ40 in conditioned medium of cells stably expressing Amyloid Precursor Protein (APP); assay: In vitro BACE cell-based assay (HEK cell assay, Aβ40 sandwich ELISA); conditions: Homo sapiens, HEK293
Summary of the method: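 IC50 was derived from percent-of-control Aβ40 against concentration, with Aβ40 quantified by time-resolved fluorescence ELISA (pAb40/6E10-biotin, 4 °C incubations). Supernatants were sampled after 24 h of compound exposure (10 points, starting 100 or 10 μM, 0.1% DMSO) of cells stably expressing APP.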

Cathepsin D (Cat D) = target: T1, Cathepsin D (Cat D) (Homo sapiens, UniProt P07339); assay: In vitro enzymatic Cathepsin D (Cat D) FRET assay; type: biochemical; conditions: read-out: CatD IC50
T1 construct: made in house; host or cells: CHO cells
T1 sequence (P07339 65-412, species assumed): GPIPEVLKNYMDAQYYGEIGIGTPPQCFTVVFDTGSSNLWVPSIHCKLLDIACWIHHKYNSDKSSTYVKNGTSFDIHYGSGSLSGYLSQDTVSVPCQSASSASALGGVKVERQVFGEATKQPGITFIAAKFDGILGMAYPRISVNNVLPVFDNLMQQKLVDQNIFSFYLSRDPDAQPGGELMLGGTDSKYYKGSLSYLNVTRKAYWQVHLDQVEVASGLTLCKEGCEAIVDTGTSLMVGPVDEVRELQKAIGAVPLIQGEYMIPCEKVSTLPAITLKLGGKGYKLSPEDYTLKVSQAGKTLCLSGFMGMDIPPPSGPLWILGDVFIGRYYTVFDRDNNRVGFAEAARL
Summary of the method: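 Fluorescence (500 nm excitation, 580 nm emission) was measured after Tris quench of a 1 h cleavage of 20 nM quenched peptide substrate. Before that, 9 nM CHO-expressed human Cat D sat with compound for 1 h at pH 3.5 (0.05 M citrate, 5 mM CHAPS, 10% DMSO final).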

[2] = average IC50, read-out: BACE1 Enzyme assay IC50
[3] = average IC50, read-out: BACE1 cell assay IC50
[4] = read-out: BACE1 FRET assay IC50
[5] = Aβ40, 24 h incubation, read-out: HEK cell assay IC50

BACE1, sequence (P56817 46-501, species assumed): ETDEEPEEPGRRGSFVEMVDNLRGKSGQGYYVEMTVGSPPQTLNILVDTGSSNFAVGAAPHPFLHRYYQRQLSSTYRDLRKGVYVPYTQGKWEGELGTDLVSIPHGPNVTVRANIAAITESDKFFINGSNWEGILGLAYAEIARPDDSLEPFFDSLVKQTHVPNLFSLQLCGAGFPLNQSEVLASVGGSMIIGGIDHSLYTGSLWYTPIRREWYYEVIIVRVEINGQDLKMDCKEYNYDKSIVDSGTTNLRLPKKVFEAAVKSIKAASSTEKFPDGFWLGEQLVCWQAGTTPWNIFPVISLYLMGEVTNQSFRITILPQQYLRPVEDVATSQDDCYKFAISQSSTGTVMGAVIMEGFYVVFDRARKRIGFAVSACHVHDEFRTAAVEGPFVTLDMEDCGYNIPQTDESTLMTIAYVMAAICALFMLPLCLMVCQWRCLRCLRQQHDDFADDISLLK

Row | IC50 (BACE1; [2]) [nM] | IC50 [1, 3] [nM] | IC50 (Cathepsin D (Cat D); average IC50, first procedure) [µM] | IC50 (BACE1; [4]) [nM] | IC50 [1, 5] [nM] | IC50 (Cathepsin D (Cat D)) [µM] | SMILES
1 | 40 | 35 | 1590 |  |  |  | Cc1cc(C(F)(F)F)cnc1C(=O)Nc1ccc(F)c([C@@]2(C)N=C(N)[C@]3(CF)CC[C@H]2S3(=O)=O)c1 [Example 93, N-(3-((1R,2R,5S)-4-amino-5-(fluoromethyl)-2-methyl-8,8-dioxido-8-thia-3-azabicyclo[3.2.1]oct-3-en-2-yl)-4-fluorophenyl)-3-methyl-5-(trifluoromethyl)-2-pyridinecarboxamide]
2 | 5 | 4 | 363 |  |  |  | C[C@]1(c2cc(Nc3ncnc4cc(Cl)cnc34)ccc2F)N=C(N)[C@@]2(C)CC[C@@H]1S2(=O)=O [Example 130, N-(3-((1S,2R,5R)-4-amino-2,5-dimethyl-8,8-dioxido-8-thia-3-azabicyclo[3.2.1]oct-3-en-2-yl)-4-fluorophenyl)-7-chloropyrido[3,2-d]pyrimidin-4-amine]
3 | 29 | 18 | 482 |  |  |  | C[C@]12CC[C@H]([C@@](C)(c3cc(Nc4ncnc5cc(Cl)cnc45)ccc3F)N=C1N)S2(=O)=O [Example 131, N-(3-((1R,2R,5S)-4-amino-2,5-dimethyl-8,8-dioxido-8-thia-3-azabicyclo[3.2.1]oct-3-en-2-yl)-4-fluorophenyl)-7-chloropyrido[3,2-d]pyrimidin-4-amine]
4 | 61 | 122 | > 400 |  |  |  | CC#CCOc1ccc(C(=O)Nc2ccc(F)c([C@@]3(C)N=C(N)[C@@]4(C)CC[C@@H]3S4(=O)=O)c2)c(F)c1 [Example 138, N-(3-((1S,2R,5R)-4-amino-2,5-dimethyl-8,8-dioxido-8-thia-3-azabicyclo[3.2.1]oct-3-en-2-yl)-4-fluorophenyl)-4-(2-butyn-1-yloxy)-2-fluorobenzamide]
5 | 16 | 19 | 217 |  |  |  | C[C@]1(c2cc(Nc3nccc4[nH]c(=O)cnc34)ccc2F)N=C(N)[C@@]2(CF)CC[C@@H]1S2(=O)=O [Example 148, 5-((3-((1S,2R,5R)-4-amino-5-(fluoromethyl)-2-methyl-8,8-dioxido-8-thia-3-azabicyclo[3.2.1]oct-3-en-2-yl)-4-fluorophenyl)amino)pyrido[3,4-b]pyrazin-2(1H)-one]
6 |  |  |  | 49 | 27 | 138 | COc1cnc(C(=O)Nc2ccc(F)c([C@@]3(C)N=C(N)[C@@]4(C)CCC[C@]3(C)S4(=O)=O)c2)cn1 [Example 15, N-(3-((1S,2R,5R)-4-Amino-1,2,5-trimethyl-9,9-dioxido-9-thia-3-azabicyclo[3.3.1]non-3-en-2-yl)-4-fluorophenyl)-5-methoxypyrazine-2-carboxamide]
7 |  |  |  | 13 | 6 | 8.64 | Cc1cc(OC(F)F)cnc1C(=O)Nc1ccc(F)c([C@@]2(C)N=C(N)[C@@]3(C)CCC[C@]2(C)S3(=O)=O)c1 [Example 13, N-(3-((1S,2R,5R)-4-Amino-1,2,5-trimethyl-9,9-dioxido-9-thia-3-azabicyclo[3.3.1]non-3-en-2-yl)-4-fluorophenyl)-5-(difluoromethoxy)-3-methylpicolinamide]
8 | 61 | 253 | 5340 |  |  |  | C[C@]12CC[C@H]([C@@](C)(c3cc(Nc4ncc(F)c5cc(OCC6CC6)cnc45)ccc3F)N=C1N)S2(=O)=O [Example 136, N-(3-((1R,2R,5S)-4-amino-2,5-dimethyl-8,8-dioxido-8-thia-3-azabicyclo[3.2.1]oct-3-en-2-yl)-4-fluorophenyl)-3-(cyclopropylmethoxy)-5-fluoro-1,7-naphthyridin-8-amine]
9 | 11 | 381 | 21.5 |  |  |  | C[C@]12CC[C@](C)([C@@](C)(c3cc(Nc4ncc(F)c5cc(Cl)cnc45)ccc3F)N=C1N)S2(=O)=O [Example 51, N-(3-((1R,2R,5S)-4-amino-1,2,5-trimethyl-8,8-dioxido-8-thia-3-azabicyclo[3.2.1]oct-3-en-2-yl)-4-fluorophenyl)-3-chloro-5-fluoro-1,7-naphthyridin-8-amine]
10 |  |  |  | 1 | 52 | 733 | C[C@]1(c2cc(Nc3ncc(F)c4cc(Cl)cnc34)ccc2F)N=C(N)[C@@]2(C)CC[C@@H]1S2(=O)=O [Example 29, (1R,4R,5S)-2-Amino-4-(5-((3-chloro-5-fluoro-1,7-naphthyridin-8-yl)amino)-2-fluorophenyl)-1,4-dimethyl-8-thia-3-azabicyclo[3.2.1]oct-2-ene 8,8-dioxide]
11 |  |  |  | 14 | 2 | 2040 | Cc1cc(C(F)(F)F)cnc1C(=O)Nc1ccc(F)c([C@@]2(C)N=C(N)[C@]3(C)CC[C@H]2S3(=O)=O)c1 [Example 27, N-(3-((1R,2R,5S)-4-Amino-2,5-dimethyl-8,8-dioxido-8-thia-3-azabicyclo[3.2.1]oct-3-en-2-yl)-4-fluorophenyl)-3-methyl-5-(trifluoromethyl)picolinamide]
12 | 1 | 4 | 1610 |  |  |  | CC#CCOc1cnc2c(Nc3ccc(F)c([C@@]4(C)N=C(N)[C@@]5(C)CC[C@@H]4S5(=O)=O)c3)ncc(F)c2c1 [Example 134, N-(3-((1S,2R,5R)-4-amino-2,5-dimethyl-8,8-dioxido-8-thia-3-azabicyclo[3.2.1]oct-3-en-2-yl)-4-fluorophenyl)-3-(2-butyn-1-yloxy)-5-fluoro-1,7-naphthyridin-8-amine]
13 |  |  |  | 8 | 17 | 577 | Cc1cc(Cl)cnc1C(=O)Nc1ccc(F)c([C@@]2(C)N=C(N)[C@]3(C)CC[C@H]2S3(=O)=O)c1 [Example 26, N-(3-((1R,2R,5S)-4-Amino-2,5-dimethyl-8,8-dioxido-8-thia-3-azabicyclo[3.2.1]oct-3-en-2-yl)-4-fluorophenyl)-5-chloro-3-methylpicolinamide]
14 | 103 | 65 | > 400 |  |  |  | C[C@]1(c2cc(NC(=O)c3c(F)cc(Br)cc3F)ccc2F)N=C(N)[C@@]2(C)CC[C@@H]1S2(=O)=O [Example 125, N-(3-((1S,2R,5R)-4-amino-2,5-dimethyl-8,8-dioxido-8-thia-3-azabicyclo[3.2.1]oct-3-en-2-yl)-4-fluorophenyl)-4-bromo-2,6-difluorobenzamide]
15 |  |  |  | 5 | 33 | 29.7 | Cc1cc(Cl)cnc1C(=O)Nc1ccc(F)c([C@@]2(C)N=C(N)[C@]3(C)CCC[C@@]2(C)S3(=O)=O)c1 [Example 12, N-(3-((1R,2R,5S)-4-Amino-1,2,5-trimethyl-9,9-dioxido-9-thia-3-azabicyclo[3.3.1]non-3-en-2-yl)-4-fluorophenyl)-5-chloro-3-methylpicolinamide]
16 | 123 | 37 | > 400 |  |  |  | C[C@]12CC[C@H]([C@@](C)(c3cc(NC(=O)c4ccc(C#N)cc4F)ccc3F)N=C1N)S2(=O)=O [Example 128, N-(3-((1R,2R,5S)-4-amino-2,5-dimethyl-8,8-dioxido-8-thia-3-azabicyclo[3.2.1]oct-3-en-2-yl)-4-fluorophenyl)-4-cyano-2-fluorobenzamide]
17 | 61 | 82 | 3460 |  |  |  | Cc1cc(C(F)(F)F)cnc1C(=O)Nc1ccc(F)c([C@@]2(CF)N=C(N)[C@@]3(C)CC[C@@H]2S3(=O)=O)c1 (single isomer, unassigned) [Example 114]

From patent publication US9096615B2, “Bridged bicyclic amino thiazine dioxide compounds as inhibitors of beta-secretase and methods of use thereof” (AMGEN INC., priority 2013, dated 2015)
